Test results published in patent US20020103084A1, “Soybean derived pesticide” (priority 2000, published 2002).

System: Persia mites
Test: Spray on avocado trees infested with Persia mites
Type: in vivo
Details: Example 14, diluted 200 times water
Protocol: Soybean extract and soybean slurry prepared as described above are used in the following examples. Many of the following examples involve spraying solutions onto leaves. The amount sprayed in the subsequent examples is quantified as spraying an amount sufficient to totally wet the plant or leaf surface.
The prepared concentrated insecticide is then diluted with 100 times water and thereafter sprayed onto avocado trees infested with Persia mites. A control sample using water was also tested. The results are as follows:
The effectiveness of soybean extract (Sample I) sprayed upon avocado leaves infested with Persia mites is evaluated. Sample I is diluted at both 100 times and 500 times water and thereafter sprayed onto avocado trees infested with Persia mites. A control sample using water was also tested. The results are as follows:
The same samples used in Example 5 are also used in testing effectiveness for control of mites. The samples are diluted with 100 times water and sprayed onto avocado trees infested with Persia mites. Two controls were used: the first, pure water; and, the second, clove oil diluted 100 times with water. The test results are as the following:
The same samples used in Example 7 are also used in testing the control of mites. The samples are diluted with 100 times water and sprayed onto avocado trees infested with Persia mites. The test results are as the following: […]

O=C/C=C/c1ccccc1 [Cinnamic Aldehyde, cinnamic aldehyde]
Mortality (%) (6 days after spray): 57.3%
No. Mites 6 Days After Spray (average number of mites per leaf, avocado trees): 10.8
